Measured values from paper PMC2972222, “Breast Cancer Stem-Like Cells Are Inhibited by a Non-Toxic Aryl Hydrocarbon Receptor Agonist” (PLoS ONE, 2010).

Legend:
[1] = molecular target: T1, aryl hydrocarbon receptor (AHR) (Mus musculus, UniProt P30561); assay: competition radioligand binding, unlabeled 3-MC versus [3-H]-3-MC on antibody-immobilized AHR
T1 construct: native AHR from mouse liver cytosol, immobilized on plate with anti-AHR antibody
T1 sequence (P30561 10-848): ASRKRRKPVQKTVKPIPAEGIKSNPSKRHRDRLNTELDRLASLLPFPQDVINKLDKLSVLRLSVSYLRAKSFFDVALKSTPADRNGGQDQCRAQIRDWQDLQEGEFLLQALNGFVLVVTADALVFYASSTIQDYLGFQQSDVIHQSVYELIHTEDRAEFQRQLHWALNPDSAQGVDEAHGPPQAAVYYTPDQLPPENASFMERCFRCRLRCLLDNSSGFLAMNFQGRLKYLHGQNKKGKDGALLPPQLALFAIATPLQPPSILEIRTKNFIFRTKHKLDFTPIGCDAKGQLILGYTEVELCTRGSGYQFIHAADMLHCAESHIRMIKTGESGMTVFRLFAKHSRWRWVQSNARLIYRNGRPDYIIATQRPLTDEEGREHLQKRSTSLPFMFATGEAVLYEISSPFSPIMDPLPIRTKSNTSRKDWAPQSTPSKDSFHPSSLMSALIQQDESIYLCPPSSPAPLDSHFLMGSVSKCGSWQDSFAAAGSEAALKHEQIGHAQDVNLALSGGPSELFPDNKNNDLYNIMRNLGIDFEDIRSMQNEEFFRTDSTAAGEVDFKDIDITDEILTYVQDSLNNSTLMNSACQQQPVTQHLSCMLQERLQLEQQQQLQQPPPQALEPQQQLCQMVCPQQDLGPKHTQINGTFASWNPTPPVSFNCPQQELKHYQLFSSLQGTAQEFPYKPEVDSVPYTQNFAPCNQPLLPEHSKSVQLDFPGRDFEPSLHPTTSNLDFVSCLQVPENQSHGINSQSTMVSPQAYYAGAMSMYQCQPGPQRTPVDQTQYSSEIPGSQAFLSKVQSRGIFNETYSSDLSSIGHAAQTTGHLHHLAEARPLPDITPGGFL
From the text: competition radioligand binding, unlabeled 3-MC versus [3-H]-3-MC on antibody-immobilized AHR on aryl hydrocarbon receptor (AHR) | Competition of tranilast or unlabeled 3-MC with [3-H]-3-MC for binding to plate-immobilized AHR from mouse liver cytosol

[2] = molecular target: T1, aryl hydrocarbon receptor (AHR); assay: competition radioligand binding with [3-H]-3-MC on antibody-immobilized AHR

Row | Ki [2] [µM] | Structure (SMILES) | Ki [1] [nM]
1 | – | Cc1ccc2cc3c(ccc4ccccc43)c3c2c1CC3 [3-methylcholanthrene] | 35
2 | 44 | COc1ccc(/C=C/C(=O)Nc2ccccc2C(=O)O)cc1OC [tranilast, N-[3,4-dimethoxycinnamoyl]anthranilic acid] | –
